Paper PMC6811774, “Potent, selective, and subunit‐dependent activation of TRPC5 channels by a xanthine derivative” (British Journal of Pharmacology, 2019)

What was measured:
Assay type in all cases: cell-based
TRPC5–C1 channels = TRPC5–C1 channels (Homo sapiens, UniProt P48995+Q9UL62); assay: [Ca2+]i measurement in (Tet+) HEK T-REx cells expressing hTRPC5-C1 concatemer
Procedure: HEK T‐REx™ cell line was transfected with TRPC5‐SYFP2 or TRPC4‐SYFP2 using FuGENE® HD transfection reagent. After 48 hr, cells were put under antibiotic selection using 400 μg·ml^−1 zeocin and 10 μg·ml^−1 blasticidin S (Invivogen, San Diego, California, USA). Medium changes were carried out regularly to remove dead cells. HEK T‐REx cells expressing tetracycline‐inducible human TRPC5, TRPC4–C1, and TRPC5–C1 were created as described previously (Akbulut et al., 2015; Ludlow et al., 2017; Rubaiy, Ludlow, Henrot, et al., 2017). TRPC5–C1 and TRPC4–C1 concatemers allow expression of functional channels with defined 2:2 stoichiometry that display ion permeability and current–voltage relationships distinct from those of homomeric TRPC4:C4 or TRPC5:C5 channels and consistent with those obtained upon co‐expression of TRPC1 with TRPC4 or TRPC5 (Ludlow et al., 2017; Rubaiy, Ludlow, Bon, & Beech, 2017; Rubaiy, Ludlow, Henrot, et al., 2017). Cells were cultured in DMEM‐F12 GlutaMAX (Invitrogen, Paisley, UK) containing 10% FBS (Sigma‐Aldrich, Gillingham, UK), with the addition of blasticidin (10 μg·ml^−1) and zeocin (400 μg·ml^−1) to maintain the stable incorporation of the tetracycline repressor and the channel of interest, respectively. Expression of proteins was induced by the addition of tetracycline (1 μg·ml^−1, 24 hr). Cells were maintained in a humidified incubator with 5% CO2 at 37°C. HEK 293 cells stably expressing tetracycline‐regulated human http://www.guidetopharmacology.org/GRAC/ObjectDisplayForward?objectId=494 were prepared similarly and have also been described previously (McHugh, Flemming, Xu, Perraud, & Beech, 2003). For experiments using transient co‐expression of TRPC1 and TRPC5, HEK cells at 40–60% confluency were transfected with pIRES2‐AcGFP1 and pIRES2‐DsRed‐Express2 plasmids containing human TRPC1 and TRPC5, respectively, using Lipofectamine 3000 (ThermoFisher Scientific, Yokohama, Japan). All experiments using transient expression were performed within 48 hr after transfection. […]

TRPC1:C5 channels = target: T1, TRPC1:C5 channels (Homo sapiens, UniProt P48995+Q9UL62); assay: Excised outside-out patch-clamp, HEK 293 cells transiently co-expressing hTRPC1 and hTRPC5
T1 construct: expressed in transfected cells; host or cells: HEK 293 (transient, Lipofectamine 3000)
T1 sequence (Q9UL62 whole entry): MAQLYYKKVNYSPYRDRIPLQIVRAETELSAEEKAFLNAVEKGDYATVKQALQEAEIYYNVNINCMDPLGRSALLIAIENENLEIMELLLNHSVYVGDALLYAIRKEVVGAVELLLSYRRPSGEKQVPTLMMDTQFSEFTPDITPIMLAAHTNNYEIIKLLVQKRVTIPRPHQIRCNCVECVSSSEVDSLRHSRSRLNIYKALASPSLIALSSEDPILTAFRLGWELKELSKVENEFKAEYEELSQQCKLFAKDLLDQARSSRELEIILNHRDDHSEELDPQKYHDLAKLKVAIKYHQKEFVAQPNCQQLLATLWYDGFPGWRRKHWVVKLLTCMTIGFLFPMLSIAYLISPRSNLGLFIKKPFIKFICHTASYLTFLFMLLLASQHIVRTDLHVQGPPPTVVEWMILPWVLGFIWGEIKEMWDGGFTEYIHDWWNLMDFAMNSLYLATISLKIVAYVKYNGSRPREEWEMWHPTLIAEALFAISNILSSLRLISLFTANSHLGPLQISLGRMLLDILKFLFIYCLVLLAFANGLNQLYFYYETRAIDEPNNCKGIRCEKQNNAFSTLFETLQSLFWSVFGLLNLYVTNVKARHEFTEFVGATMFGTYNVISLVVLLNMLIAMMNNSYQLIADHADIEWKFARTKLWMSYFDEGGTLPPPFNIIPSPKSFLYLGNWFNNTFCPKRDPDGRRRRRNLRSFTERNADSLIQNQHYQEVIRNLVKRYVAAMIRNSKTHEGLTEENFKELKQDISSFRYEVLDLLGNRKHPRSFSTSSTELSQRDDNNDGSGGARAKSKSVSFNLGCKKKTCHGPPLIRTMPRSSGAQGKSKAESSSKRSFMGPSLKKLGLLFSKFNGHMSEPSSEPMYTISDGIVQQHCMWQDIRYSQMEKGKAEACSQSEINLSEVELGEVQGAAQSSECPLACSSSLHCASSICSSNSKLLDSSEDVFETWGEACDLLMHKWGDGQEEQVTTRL
T1 sequence (P48995 whole entry): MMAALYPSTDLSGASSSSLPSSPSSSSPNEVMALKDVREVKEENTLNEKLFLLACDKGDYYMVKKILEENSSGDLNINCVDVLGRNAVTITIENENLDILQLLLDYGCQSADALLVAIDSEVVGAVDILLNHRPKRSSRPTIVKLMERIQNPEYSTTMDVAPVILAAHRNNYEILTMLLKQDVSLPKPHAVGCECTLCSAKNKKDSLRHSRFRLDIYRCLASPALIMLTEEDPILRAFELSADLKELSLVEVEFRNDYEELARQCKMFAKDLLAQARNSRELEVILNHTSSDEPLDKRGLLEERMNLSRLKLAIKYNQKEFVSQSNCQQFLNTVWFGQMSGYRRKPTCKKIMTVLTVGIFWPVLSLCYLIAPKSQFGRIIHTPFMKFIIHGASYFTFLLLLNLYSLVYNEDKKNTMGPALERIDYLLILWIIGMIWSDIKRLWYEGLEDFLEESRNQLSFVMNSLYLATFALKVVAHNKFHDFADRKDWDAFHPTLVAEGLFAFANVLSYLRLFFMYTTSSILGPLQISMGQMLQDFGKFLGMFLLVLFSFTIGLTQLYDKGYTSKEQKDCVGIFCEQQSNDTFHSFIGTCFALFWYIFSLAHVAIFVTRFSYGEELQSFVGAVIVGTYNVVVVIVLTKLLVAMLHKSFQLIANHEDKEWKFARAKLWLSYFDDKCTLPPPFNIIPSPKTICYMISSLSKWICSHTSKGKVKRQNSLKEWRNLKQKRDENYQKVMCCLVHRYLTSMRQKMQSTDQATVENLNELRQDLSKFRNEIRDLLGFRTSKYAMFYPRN
Procedure: HEK T‐REx™ cell line was transfected with TRPC5‐SYFP2 or TRPC4‐SYFP2 using FuGENE® HD transfection reagent. After 48 hr, cells were put under antibiotic selection using 400 μg·ml^−1 zeocin and 10 μg·ml^−1 blasticidin S (Invivogen, San Diego, California, USA). Medium changes were carried out regularly to remove dead cells. HEK T‐REx cells expressing tetracycline‐inducible human TRPC5, TRPC4–C1, and TRPC5–C1 were created as described previously (Akbulut et al., 2015; Ludlow et al., 2017; Rubaiy, Ludlow, Henrot, et al., 2017). […]
For electrophysiology experiments, cells were plated at a low density of 20–30% onto round or square glass coverslips (13 mm diameter or 5 × 5 mm), and TRPC expression in HEK T‐REx was induced with 1 μg·ml^−1 tetracycline 24 hr before experimentation. […] The patch‐clamp currents were recorded using Axopatch 200B or HEKA EPC‐800 amplifiers, digitized by a Digidata 1440 or PCI6229 (National Instruments Japan, Tokyo, Japan) and recorded to a computer using pCLAMP10 (Molecular Devices) or WinWCPV4.5 (developed by Dr John Dempster, University of Strathclyde, UK). […]

[1] = target: T2, native TRPC1:C4 channels in A498 cells (Homo sapiens, UniProt P48995+Q9UBN4); assay: [Ca2+]i measurement in A498 renal carcinoma cells
T2 construct: A498 renal carcinoma cells, which endogenously express TRPC1:C4 channels; endogenous in cells; host or cells: A498
T2 sequence (Q9UBN4 whole entry): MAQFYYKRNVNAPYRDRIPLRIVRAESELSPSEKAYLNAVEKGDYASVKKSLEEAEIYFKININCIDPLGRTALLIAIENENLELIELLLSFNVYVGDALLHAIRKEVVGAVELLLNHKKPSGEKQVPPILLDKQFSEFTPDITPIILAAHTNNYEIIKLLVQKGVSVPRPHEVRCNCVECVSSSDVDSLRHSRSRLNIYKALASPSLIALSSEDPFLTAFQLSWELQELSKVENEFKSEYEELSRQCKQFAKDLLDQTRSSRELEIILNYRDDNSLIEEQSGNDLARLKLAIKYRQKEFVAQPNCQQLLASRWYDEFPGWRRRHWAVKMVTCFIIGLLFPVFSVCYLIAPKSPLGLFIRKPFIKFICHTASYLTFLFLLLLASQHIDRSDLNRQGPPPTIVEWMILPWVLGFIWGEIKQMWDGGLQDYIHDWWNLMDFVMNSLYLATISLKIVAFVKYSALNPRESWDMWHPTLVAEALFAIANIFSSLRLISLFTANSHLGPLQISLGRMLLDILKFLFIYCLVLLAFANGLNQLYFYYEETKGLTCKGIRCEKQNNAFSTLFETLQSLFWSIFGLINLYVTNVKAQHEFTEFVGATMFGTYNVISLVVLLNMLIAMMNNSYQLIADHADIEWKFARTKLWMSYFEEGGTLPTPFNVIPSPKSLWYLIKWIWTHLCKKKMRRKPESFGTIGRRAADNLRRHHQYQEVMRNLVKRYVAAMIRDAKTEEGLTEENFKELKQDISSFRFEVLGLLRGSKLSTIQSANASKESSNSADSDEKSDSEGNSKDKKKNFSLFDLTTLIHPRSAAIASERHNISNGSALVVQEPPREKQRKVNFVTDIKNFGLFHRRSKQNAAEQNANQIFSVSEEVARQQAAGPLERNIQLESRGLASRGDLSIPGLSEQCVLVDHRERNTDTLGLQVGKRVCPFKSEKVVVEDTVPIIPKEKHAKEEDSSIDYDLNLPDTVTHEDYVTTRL
T2 sequence (P48995 whole entry): as the sequence (P48995 whole entry) above

Chain of TRPC5–C1 channels (Q9UL62 whole entry): as the sequence (Q9UL62 whole entry) above
Chain of TRPC5–C1 channels (P48995 whole entry): as the sequence (P48995 whole entry) above

## Cn1c(=O)n(CCCO)c(=O)c2c1nc(Oc1ccc(Cl)c(OC(F)(F)F)c1)n2Cc1ccc(Cl)cc1 [AM237]
TRPC5–C1 channels
  Hill slope, inhibition of EA response: -1.2
TRPC5–C1 channels; 0.1–100 nM AM237
  Effect of pre-incubation on basal [Ca2+]i: did not raise
TRPC5–C1 channels; 3-300 nM AM237
  Activation upon acute administration ([Ca2+]i): lack of activation
TRPC1:C5 channels; 30 nM EA, at 3 to 100 nM AM237
  Inhibition of inward and outward currents induced by EA: full inhibition
TRPC1:C5 channels; outside-out patch
  Activation of TRPC1:C5 currents: did not activate
[1]
  Hill slope, inhibition of EA response: -0.99
[1]; 0.01–10 nM AM237
  Effect of pretreatment on basal [Ca2+]i: no effect
[1]; 3-300 nM AM237
  Activation upon acute administration ([Ca2+]i): lack of activation
[1]; AM237 pretreatment, then EA, read-out: IC50, inhibition of EA-mediated increase in [Ca2+]i
  IC50: 849 pM
